Experimental data from PMC8699473, “An Easily Expandable Multi-Drug LC-MS Assay for the Simultaneous Quantification of 57 Oral Antitumor Drugs in Human Plasma” (Cancers, 2021).

Experiment: Long-term stability in spiked pooled human plasma

Row | SMILES | Long-term stability, 1 month, -20°C Accuracy [%] (validation standard 2xLLOV) | Long-term stability, 1 month, -80°C Accuracy [%] (validation standard 2xLLOV) | Long-term stability, 2 month, -20°C Accuracy [%] (validation standard 2xLLOV) | Long-term stability, 2 month, -80°C Accuracy [%] (validation standard 2xLLOV) | Long-term stability, 3 month, -20°C Accuracy [%] (validation standard 2xLLOV) | Long-term stability, 3 month, -80°C Accuracy [%] (validation standard 2xLLOV) | Long-term stability, 6 weeks, 4°C, without daylight Accuracy [%] (validation standard 2xLLOV) | Long-term stability, 1 month, -20°C Accuracy [%] (validation standard LLOV) | Long-term stability, 1 month, -80°C Accuracy [%] (validation standard LLOV) | Long-term stability, 2 month, -20°C Accuracy [%] (validation standard LLOV) | Long-term stability, 2 month, -80°C Accuracy [%] (validation standard LLOV) | Long-term stability, 3 month, -20°C Accuracy [%] (validation standard LLOV) | Long-term stability, 3 month, -80°C Accuracy [%] (validation standard LLOV) | Long-term stability, 1 month, -20°C Accuracy [%] (validation standard MOV) | Long-term stability, 1 month, -80°C Accuracy [%] (validation standard MOV) | Long-term stability, 2 month, -20°C Accuracy [%] (validation standard MOV) | Long-term stability, 2 month, -80°C Accuracy [%] (validation standard MOV) | Long-term stability, 3 month, -20°C Accuracy [%] (validation standard MOV) | Long-term stability, 3 month, -80°C Accuracy [%] (validation standard MOV) | Long-term stability, 6 weeks, 4°C, without daylight Accuracy [%] (validation standard MOV) | other results
1 | COc1cc2nccc(Oc3ccc(NC(=O)Nc4cc(C)on4)c(Cl)c3)c2cc1OC [Tivozanib] | 101.4 | 95.7 | 98.9 | 101.4 | 96.9 | 95.2 | 93.9 | 99.8 | 96.0 | 95.8 | 100.7 | 92.5 | 97.1 | 97.4 | 95.0 | 102.0 | 101.3 | 100.0 | 98.0 | 107.6 | Long-term stability, 6 weeks, 4°C, without daylight Accuracy [%] (validation standard LLOV): 86.9%; Long-term stability, 1 month, -20°C Accuracy [%] (validation standard ULOV): 97.0%; Long-term stability, 1 month, -80°C Accuracy [%] (validation standard ULOV): 92.8%; Long-term stability, 2 month, -20°C Accuracy [%] (validation standard ULOV): 100.9%; Long-term stability, 2 month, -80°C Accuracy [%] (validation standard ULOV): 100.3%; Long-term stability, 3 month, -20°C Accuracy [%] (validation standard ULOV): 96.3%; Long-term stability, 3 month, -80°C Accuracy [%] (validation standard ULOV): 96.2%; Long-term stability, 6 weeks, 4°C, without daylight Accuracy [%] (validation standard ULOV): 100.6%
2 | CCN(CC)CCNC(=O)c1c(C)[nH]c(/C=C2\C(=O)Nc3ccc(F)cc32)c1C [Sunitinib] | 121.2 | 108.5 | 108.9 | 108.9 | 123.9 | 131.1 | 85.9 | 132.8 | 122.7 | 114.3 | 112.8 | 130.7 | 135.5 | 118.5 | 107.0 | 106.3 | 102.8 | 123.6 | 120.9 | 109.9 | Long-term stability, 6 weeks, 4°C, without daylight Accuracy [%] (validation standard LLOV): 96.2%; Long-term stability, 1 month, -20°C Accuracy [%] (validation standard ULOV): 119.5%; Long-term stability, 1 month, -80°C Accuracy [%] (validation standard ULOV): 109.0%; Long-term stability, 2 month, -20°C Accuracy [%] (validation standard ULOV): 109.7%; Long-term stability, 2 month, -80°C Accuracy [%] (validation standard ULOV): 108.8%; Long-term stability, 3 month, -20°C Accuracy [%] (validation standard ULOV): 122.5%; Long-term stability, 3 month, -80°C Accuracy [%] (validation standard ULOV): 118.4%; Long-term stability, 6 weeks, 4°C, without daylight Accuracy [%] (validation standard ULOV): 105.4%
3 | COC(=O)N[C@@H](C)CNc1nccc(-c2cn(C(C)C)nc2-c2cc(Cl)cc(NS(C)(=O)=O)c2F)n1 [Encorafenib] | 100.7 | 93.5 | 111.7 | 104.1 | 97.4 | 95.2 | 95.2 | 84.2 | 88.1 | 103.4 | 93.1 | 96.1 | 94.9 | 99.0 | 97.1 | 102.3 | 104.9 | 101.8 | 100.8 | 109.2 | Long-term stability, 6 weeks, 4°C, without daylight Accuracy [%] (validation standard LLOV): 81.0%; Long-term stability, 1 month, -20°C Accuracy [%] (validation standard ULOV): 99.1%; Long-term stability, 1 month, -80°C Accuracy [%] (validation standard ULOV): 95.7%; Long-term stability, 2 month, -20°C Accuracy [%] (validation standard ULOV): 104.0%; Long-term stability, 2 month, -80°C Accuracy [%] (validation standard ULOV): 101.8%; Long-term stability, 3 month, -20°C Accuracy [%] (validation standard ULOV): 100.7%; Long-term stability, 3 month, -80°C Accuracy [%] (validation standard ULOV): 99.0%; Long-term stability, 6 weeks, 4°C, without daylight Accuracy [%] (validation standard ULOV): 101.7%
4 | Cc1ccc(Nc2nccc(N(C)c3ccc4c(C)n(C)nc4c3)n2)cc1S(N)(=O)=O [Pazopanib] | 99.1 | 95.8 | 100.4 | 103.8 | 106.9 | 104.8 | 96.5 | 102.3 | 97.4 | 106.7 | 108.3 | 103.9 | 103.6 | 96.3 | 95.8 | 98.8 | 98.1 | 103.3 | 103.3 | 109.7 | Long-term stability, 6 weeks, 4°C, without daylight Accuracy [%] (validation standard LLOV): 99.0%; Long-term stability, 1 month, -20°C Accuracy [%] (validation standard ULOV): 97.3%; Long-term stability, 1 month, -80°C Accuracy [%] (validation standard ULOV): 93.0%; Long-term stability, 2 month, -20°C Accuracy [%] (validation standard ULOV): 98.8%; Long-term stability, 2 month, -80°C Accuracy [%] (validation standard ULOV): 98.3%; Long-term stability, 3 month, -20°C Accuracy [%] (validation standard ULOV): 98.1%; Long-term stability, 3 month, -80°C Accuracy [%] (validation standard ULOV): 100.0%; Long-term stability, 6 weeks, 4°C, without daylight Accuracy [%] (validation standard ULOV): 98.9%
5 | COc1cc2nccc(Oc3ccc(NC(=O)NC4CC4)c(Cl)c3)c2cc1C(N)=O [Lenvatinib] | 99.7 | 94.9 | 97.0 | 100.9 | 103.0 | 104.8 | 105.2 | 109.4 | 107.0 | 102.7 | 108.7 | 105.7 | 110.3 | 95.8 | 94.5 | 98.2 | 97.2 | 99.7 | 100.5 | 107.3 | Long-term stability, 6 weeks, 4°C, without daylight Accuracy [%] (validation standard LLOV): 127.4%; Long-term stability, 1 month, -20°C Accuracy [%] (validation standard ULOV): 96.4%; Long-term stability, 1 month, -80°C Accuracy [%] (validation standard ULOV): 94.7%; Long-term stability, 2 month, -20°C Accuracy [%] (validation standard ULOV): 101.7%; Long-term stability, 2 month, -80°C Accuracy [%] (validation standard ULOV): 101.9%; Long-term stability, 3 month, -20°C Accuracy [%] (validation standard ULOV): 98.3%; Long-term stability, 3 month, -80°C Accuracy [%] (validation standard ULOV): 100.8%; Long-term stability, 6 weeks, 4°C, without daylight Accuracy [%] (validation standard ULOV): 101.9%
6 | Nc1cccc2c1CN(C1CCC(=O)NC1=O)C2=O (centres unmarked) [Lenalidomide] | 112.2 | 103.2 | 97.9 | 104.0 | 99.5 | 104.1 | 15.8 | 104.5 | 96.6 | 52.8 | 56.2 | 69.1 | 82.4 | 93.9 | 93.9 | 101.8 | 104.0 | 92.9 | 96.0 | 19.7 | Long-term stability, 1 month, -20°C Accuracy [%] (validation standard ULOV): 92.6%; Long-term stability, 1 month, -80°C Accuracy [%] (validation standard ULOV): 88.5%; Long-term stability, 2 month, -20°C Accuracy [%] (validation standard ULOV): 95.8%; Long-term stability, 2 month, -80°C Accuracy [%] (validation standard ULOV): 98.8%; Long-term stability, 3 month, -20°C Accuracy [%] (validation standard ULOV): 89.8%; Long-term stability, 3 month, -80°C Accuracy [%] (validation standard ULOV): 94.4%; Long-term stability, 6 weeks, 4°C, without daylight Accuracy [%] (validation standard ULOV): 16.2%
